The text below walks through data of patent US20240368115A1, “REGULATOR CONTAINING TRICYCLIC DERIVATIVE, PREPARATION METHOD THEREFOR AND APPLICATION THEREOF” (SHUJING BIOPHARMA CO., LTD, priority 2021, published 2024).

Read-outs that look alike come from different tables or passages of the source.

A word on the EC50: it is the concentration needed to bring the measured effect to its halfway point. The low end stands for higher potency in that assay, the high end for lower potency in that assay. Usually AUC(0-inf) stands for total exposure, with the tail of the curve extrapolated. In general, Cmax refers to the highest concentration seen after dosing. For orientation: IC50 means the midpoint of a concentration-inhibition curve. The half-life is how long it takes for the measured level to halve. Lower therefore signals rapid decline.

The target of data set [1] is T1, 5-HT1A receptor (Homo sapiens, UniProt P08908).
T1 construct: expressed in transfected cells
T1 sequence (P08908 1-422): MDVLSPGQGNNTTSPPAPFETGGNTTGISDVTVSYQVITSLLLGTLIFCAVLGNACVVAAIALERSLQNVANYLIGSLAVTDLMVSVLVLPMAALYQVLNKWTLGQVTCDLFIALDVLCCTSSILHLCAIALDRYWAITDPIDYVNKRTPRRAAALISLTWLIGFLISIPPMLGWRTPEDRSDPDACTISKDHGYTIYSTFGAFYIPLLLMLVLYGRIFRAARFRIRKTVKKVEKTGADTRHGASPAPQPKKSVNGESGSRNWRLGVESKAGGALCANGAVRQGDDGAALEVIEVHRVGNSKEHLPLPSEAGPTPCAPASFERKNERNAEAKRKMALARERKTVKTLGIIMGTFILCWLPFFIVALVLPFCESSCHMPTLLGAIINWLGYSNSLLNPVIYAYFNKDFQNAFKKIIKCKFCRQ
The data set is described as follows: 5-HT1A receptor cAMP agonist test. In kind it is cell-based. The conditions noted are these: HEK293 cell strain stably expressing 5-HT1A receptor; for EC50: cAMP, forskolin 2.5×10^−7 M; for 5-HT1A Max Act %: positive control serotonin 10^−6 M.

In data set [2] the target is T2, D2S receptor (Homo sapiens, UniProt P14416).
T2 construct: expressed in transfected cells
The data set is described as follows: D2S receptor cAMP agonist test. Type of data set: cell-based. The conditions noted are these: HEK293 cell strain stably expressing D2S receptor; for EC50: cAMP, forskolin 5×10^−7 M; for D2S Max Act %: positive control dopamine 1×10^−7 M.

The target in data set [3] is T3, D2L receptor (Homo sapiens, UniProt P14416).
T3 construct: expressed in transfected cells
The data set can be described thus: D2L receptor cAMP agonist test. Type of data set: cell-based. Conditions: HEK293 cell strain stably expressing D2L receptor; for EC50: cAMP, forskolin 0.5 μM; for D2L Max Act %: positive control dopamine 1 μM.

Data set [4] in a line: Pharmacokinetic test in mice. Type of data set: in vivo. The conditions noted are these: oral intragastric, single dose 5 mg/kg, plasma, 5 mg/kg. Here is the method:
Male ICR mice were administered orally intragastrically, the plasma concentrations of the compounds of the present invention were measured in the mice, the PK parameters were calculated, and the pharmacokinetic evaluation was performed on the compounds of the present invention.
• (1) Test samples: the compounds of the examples of the present invention, self-made. • (2) Test animals: ICR mice, SPF grade, male, Xuzhou Medical University. • (3) Main test instruments:
Drug preparation: according to the weight of the weighed drug, the preparation volume was calculated. 5% of DMSO was added firstly. After the drug was fully dissolved, 95% of 20% aqueous PB-cyclodextrin solution was then added, and the mixture was mixed well for later use.
Administration route: oral intragastric administration. Frequency and duration of administration: single administration.
ICR mice were stratified according to body weight and then randomly divided into groups of 9 mice each, and the mice were fasted overnight prior to the test. The mice were separately administered orally intragastrically. 50 μL of blood was collected from the fundus vein of the mouse at 0 h, 0.083 h, 0.25 h, 0.5 h, 1 h, 2 h, 4 h, 8 h, 12 h, and 24 h (3 time points for each mouse) to a sample tube containing heparin sodium as an anticoagulant, and the tube was placed in wet ice and centrifuged at 4000 r·min^−1 for 10 min. The plasma was separated, and cryopreserved in a refrigerator at −80° C. for testing.
The concentrations of plasma samples were measured by high performance liquid chromatography-tandem mass spectrometry (LC-MS/MS). The retention times of the compounds and internal standard, chromatogram acquisitions, and integrals of chromatograms were processed using the software Analyst (AB SCIEX), and the data statistics were processed using the software Watson LIMS (Thermo Fisher Scientific) or Analyst (AB SCIEX). The concentration of plasma was processed using a non-compartmental model of the pharmacokinetic software WinNonlin™ Version 6.3 (Pharsight, Mountain View, CA), and pharmacokinetic parameters were calculated by a linear log-trapezoidal method.

Data set [5] deals with 5-HT2A receptor (Homo sapiens, UniProt P28223). The data set can be described thus: Calcium flux test for 5-HT2A receptor. In kind it is cell-based. Conditions: CHO cell strain stably expressing 5-HT2A receptor; for IC50: calcium flux, antagonism of serotonin; for 5-HT2A Max Inh %: positive control ketanserin 10^−7 M. For orientation: Calcium assays in cells follow changes in intracellular calcium, usually with a dye or a luminescent sensor.

[6] abbreviates: male, ICR, mouse, po, read-out: AUC(0-inf).
The mark [7] stands for this setting: male, ICR, mouse, po, read-out: Cmax.

T2 sequence (P14416 1-414 isoform P14416-2): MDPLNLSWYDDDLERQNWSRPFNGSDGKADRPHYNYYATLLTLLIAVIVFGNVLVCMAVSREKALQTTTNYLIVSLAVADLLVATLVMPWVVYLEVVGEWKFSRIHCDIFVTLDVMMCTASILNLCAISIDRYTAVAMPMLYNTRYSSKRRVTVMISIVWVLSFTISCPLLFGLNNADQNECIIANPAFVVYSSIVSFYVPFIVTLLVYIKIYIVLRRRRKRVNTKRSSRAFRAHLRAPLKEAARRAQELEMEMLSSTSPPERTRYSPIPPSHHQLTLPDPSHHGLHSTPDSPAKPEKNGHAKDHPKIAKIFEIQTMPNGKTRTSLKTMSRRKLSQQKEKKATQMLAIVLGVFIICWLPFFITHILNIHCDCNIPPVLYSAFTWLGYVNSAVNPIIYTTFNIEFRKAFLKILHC
T3 sequence (P14416 whole entry): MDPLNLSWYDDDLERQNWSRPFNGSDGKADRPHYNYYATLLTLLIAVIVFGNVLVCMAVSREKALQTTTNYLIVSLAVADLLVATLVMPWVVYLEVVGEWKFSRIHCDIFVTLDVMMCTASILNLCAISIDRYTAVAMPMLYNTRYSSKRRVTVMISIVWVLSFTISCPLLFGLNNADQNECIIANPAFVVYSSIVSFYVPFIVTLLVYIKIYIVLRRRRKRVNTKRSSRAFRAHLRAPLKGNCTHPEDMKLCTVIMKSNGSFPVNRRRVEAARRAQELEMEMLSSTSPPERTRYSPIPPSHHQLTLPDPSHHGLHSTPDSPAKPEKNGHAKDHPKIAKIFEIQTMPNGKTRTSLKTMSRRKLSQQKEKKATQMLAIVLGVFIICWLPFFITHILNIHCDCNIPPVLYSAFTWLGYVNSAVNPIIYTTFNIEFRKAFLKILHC
Chain of 5-HT2A receptor (P28223 whole entry): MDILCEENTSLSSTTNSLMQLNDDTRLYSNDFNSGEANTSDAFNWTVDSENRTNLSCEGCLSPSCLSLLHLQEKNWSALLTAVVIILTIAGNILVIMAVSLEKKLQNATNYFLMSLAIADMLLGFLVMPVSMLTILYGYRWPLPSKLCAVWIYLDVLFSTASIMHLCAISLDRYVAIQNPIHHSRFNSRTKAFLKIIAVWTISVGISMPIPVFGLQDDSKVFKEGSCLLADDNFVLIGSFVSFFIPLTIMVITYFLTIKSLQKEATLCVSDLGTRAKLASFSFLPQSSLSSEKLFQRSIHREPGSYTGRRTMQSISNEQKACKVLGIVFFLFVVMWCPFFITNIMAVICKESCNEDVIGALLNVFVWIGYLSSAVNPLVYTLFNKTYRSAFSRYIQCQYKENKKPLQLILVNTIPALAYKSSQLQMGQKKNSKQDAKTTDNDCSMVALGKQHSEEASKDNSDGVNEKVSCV

`O=C1Nc2cc(OCCCCN3CCN(c4cccc5c4CCO5)CC3)ccc2C2CC12` (single isomer, unassigned) [Example 45-P2]: in data set [1], the EC50 amounted to 200 nM and the “5-HT1A Max Act %” value is listed as 52.8%. Further, in data set [2], the EC50 came out at 0.89 nM and the “D2S Max Act %” value is on record as 111.5%. In data set [3], the midpoint of the response, the EC50, lay at 0.62 nM and the “D2L Max Act %” value is listed as 41.5%. Besides, in data set [4] (male ICR mice), the “AUC(0-inf)” value is 4083.7 ng·h/mL, the Cmax amounted to 660.0 ng/mL and the t1/2 was 3.0 h. Besides, in data set [5], the IC50 turned out to be 411 nM and the “5-HT2A Max Inh %” value is listed as 100.0%.
For `O=C1Nc2cc(OCCCCN3CCN(c4cccc5c4CC(F)(F)C5)CC3)ccc2C2CC12` (stereo not drawn) [Example 46, 5-(4-(4-(2,2-Difluoro-2,3-dihydro-1H-inden-4-yl)piperazin-1-yl)butoxy)-1,1a,3,7b-tetrahydro-2H-cyclopropa[c]quinolin-2-one], in data set [1], a half-maximal response (EC50) required 354 nM and the “5-HT1A Max Act %” value was 62.6%. Moreover, in data set [2], the midpoint of the response, the EC50, lay at 0.93 nM and the “D2S Max Act %” value is reported as 114.3%. In data set [3], the response was half-maximal at 0.4 nM (EC50) and the “D2L Max Act %” value is listed as 43.4%. The same compound had a half-life in data set [4] (male, ICR, mouse, po) of 15.2 h. Further, the AUC(0-inf) in data set [4] (setting [6]) came to 17700 ng·h/mL. Further, in data set [4] (setting [7]), the Cmax was determined as 1200 ng/mL. In data set [5], the IC50 worked out at 2340 nM and the “5-HT2A Max Inh %” value is listed as 91.6%.
With `O=C1Nc2cc(OCCCCN3CCN(c4cccc(Cl)c4Cl)CC3)ccc2[C@H]2C[C@@H]12` (single isomer, unassigned) [Example 1-P1], in data set [1], the midpoint of the response, the EC50, lay at 1800 nM and the “5-HT1A Max Act %” value was 33.9%. Also, in data set [2], the concentration for a half-maximal effect (EC50) was determined as 0.94 nM and the “D2S Max Act %” value stood at 111.9%. Further, in data set [3], it took 1.07 nM to reach a half-maximal effect (EC50) and the “D2L Max Act %” value turned out to be 47.7%. The half-life in data set [4] (male, ICR, mouse, po) is 34.3 h. For the same compound, the AUC(0-inf) in data set [4] (setting [6]) is 13100 ng·h/mL. In addition, the Cmax in data set [4] (setting [7]) came out at 341 ng/mL. Besides, in data set [5], the IC50 worked out at 745 nM and the “5-HT2A Max Inh %” value is 100.3%.
